Measured values published in publication PMC3815312, “A Set of Engineered Escherichia coli Expression Strains for Selective Isotope and Reactivity Labeling of Amino Acid Side Chains and Flavin Cofactors” (PLoS ONE, 2013).

Molecular target: T1, Slr1694 (SyPixD) (Synechocystis sp. PCC 6803, UniProt P74295)
T1 construct: wild type, expressed from pET28a(+)-slr1694 in E. coli CpX strains (CpXribF, CpXdeltaY); N-terminal vector extension (peptide 33-GSEFMSLYR-41 seen by MS); flavin incorporated in vivo; unlabeled, ring-13C6-Tyr or 13C apoprotein
T1 sequence (P74295 1-150): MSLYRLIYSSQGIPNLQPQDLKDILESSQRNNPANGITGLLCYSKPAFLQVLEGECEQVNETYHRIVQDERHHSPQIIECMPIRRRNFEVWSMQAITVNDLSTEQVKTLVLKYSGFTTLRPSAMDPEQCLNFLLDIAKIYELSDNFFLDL
Experiment: light-minus-dark FTIR difference spectroscopy of holoprotein
Assay type: binding
Details: in H2O; blue light 460 nm; non-covalent flavin incorporated in vivo (unlabeled riboflavin fed); bound flavin species not analysed, FMN and FAD named

Cc1cc2nc3c(=O)[nH]c(=O)nc-3n(C[C@H](O)[C@H](O)[C@H](O)COP(=O)(O)OP(=O)(O)OC[C@H]3O[C@@H](n4cnc5c(N)ncnc54)[C@H](O)[C@@H]3O)c2cc1C [FAD]
light-minus-dark FTIR difference spectroscopy of holoprotein: unlabeled riboflavin was provided in the medium throughout the cultivation procedure for the production of FMN and FAD cofactors
